How the values were obtained:
[1] = system: 2F2B cells; test: Fluorescent micrographs of cells treated with DOX nanoparticles vs free DOX; format: cell-based; conditions: 30 min treatment, DOX fluorescence
Description: FIG. 4A depicts fluorescent micrographs showing 2F2B cells treated for 30 min with αvβ3-targeted perfluorocarbon nanoparticles incorporating DOX (Left) vs. equimolar exposure of free DOX (Middle).
Not only was significant amount delivered to the nucleus (white arrow), the cytoplasmic content of DOX remained high (yellow arrow), providing a continuous source of DOX for nuclear translocation. […] The data also confirm that DOX fluorescence, which was used to obtain these images, will provide sufficient contrast for imaging DOX's intracellular trafficking to the nuclei.

[2] = system: HT1080 tumors; conditions: I.V., 0.3-0.4 g/Kg (~10x the nanoparticle dosage)
Description: For determining pHe changes in vivo post bolus particle Intravenous injection, HT1080 tumors were grown subcutaneously in dorsal flanks of athymic nude mice, in dorsal bilateral flanks. Tumors generally grew in one flank. When the tumors growth reached approximately 50 mm^3 or greater, the extracellular pH was measured using an external pH electrode. […] Treatments were discontinued for at least 5 days before performing the in vivo pH measurements. […] The pH was measured using an extracellular pH electrode implanted into the tumor following a 15 min equilibration period after electrode entry. The pH electrode was calibrated within the week. About 1 mg of each size of particles (20 nm, 100 nm, 300 nm) in a 100 μL solution of PBS, CaCl2, MgCl2 and 2% bovine serum albumin was injected intravenously in individual mice. […] Tumor sizes at time of injection for this experiment were 12 mm×9 mm (20 nm particles), 13.7 mm×12.5 mm (100 nm), 13.5 mm×15.5 mm (300 nm), 12.5×16.5 mm (0.84% bicarbonate), 12.5×16.5 mm (7.5% bicarbonate), and 12.5×16.5 mm (vector). In general, the pH was then followed each minute for a minimum of 1 hour, or up to 3 hours if any changes were seen. […] Bleeding, if any, was also noted.

SMILES	cytoplasmic content of DOX [1]	tumor pH change [2]
COc1cccc2c1C(=O)c1c(O)c3c(c(O)c1C2=O)C[C@@](O)(C(=O)CO)C[C@@H]3O[C@H]1C[C@H](N)[C@H](O)[C@H](C)O1 [free DOX, Doxorubicin]	depleted rapidly	–
O=C([O-])O.[Na+] [sodium bicarbonate]	–	did not induce a measurable pH change
